IC50 data for 28 compounds are collected here from patent US20250026766A1, “Thiazolopyridyl Amide Derivatives as DNA Polymerase Theta Inhibitors” (BeiGene, Ltd., priority 2022, published 2025).

SMILES strings stand for the structures.

In general, IC50 refers to the midpoint of a concentration-inhibition curve. Read a high IC50 as a need for much substance.

The target in this assay is Pol Theta (1-894) (Homo sapiens (Human), UniProt O75417). Put plainly: Biochemical Pol Theta (1-894) ATPase IC50 assay (ADP-Glo, ssDNA substrate). The conditions noted are these: ADP-Glo assay with ssDNA substrate, room temperature. On the procedure: Baculovirus Expression of Human POL theta (1-894)
Pol Theta (1-894), sequence (O75417 1-894): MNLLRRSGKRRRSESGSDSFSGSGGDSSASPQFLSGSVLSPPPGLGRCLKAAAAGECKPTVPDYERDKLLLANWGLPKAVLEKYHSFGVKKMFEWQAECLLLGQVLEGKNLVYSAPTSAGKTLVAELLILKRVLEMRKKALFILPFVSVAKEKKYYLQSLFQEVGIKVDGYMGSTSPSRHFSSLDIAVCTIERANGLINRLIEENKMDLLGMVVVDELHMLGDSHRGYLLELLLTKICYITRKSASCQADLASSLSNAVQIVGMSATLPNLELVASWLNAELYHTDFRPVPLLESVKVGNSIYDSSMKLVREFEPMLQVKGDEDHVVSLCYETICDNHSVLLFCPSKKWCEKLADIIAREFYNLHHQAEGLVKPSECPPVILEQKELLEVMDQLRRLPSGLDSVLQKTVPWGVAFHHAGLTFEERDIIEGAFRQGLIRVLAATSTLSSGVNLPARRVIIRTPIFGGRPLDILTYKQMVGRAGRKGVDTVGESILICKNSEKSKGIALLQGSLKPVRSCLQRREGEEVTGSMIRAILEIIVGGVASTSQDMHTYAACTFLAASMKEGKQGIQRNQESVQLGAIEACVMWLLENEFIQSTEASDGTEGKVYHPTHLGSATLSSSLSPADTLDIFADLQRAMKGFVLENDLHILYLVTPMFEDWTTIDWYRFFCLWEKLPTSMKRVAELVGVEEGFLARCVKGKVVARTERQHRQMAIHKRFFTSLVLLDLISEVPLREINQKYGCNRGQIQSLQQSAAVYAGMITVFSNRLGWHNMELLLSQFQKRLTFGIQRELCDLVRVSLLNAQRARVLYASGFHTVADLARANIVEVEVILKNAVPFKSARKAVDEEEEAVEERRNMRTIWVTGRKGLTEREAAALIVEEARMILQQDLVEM
Human POL Theta (1-894)-His-pFastBac1 baculovirus samples were generated using the Bac-to-Bac baculovirus expression system (Invitrogen) according to the manufacturer's protocol. […] Baculovirus amplification was achieved using infected SF9 cells at 1:2000 virus/cells ratios, and grown for 96 hours at 27° C. post-transfection. The expression scaled up for each protein was carried out in the flask 3 L from CORNING. 4 L of 3×10^6 cells/mL Sf9 cells (Expression System, Invitrogen) grown in SF900TM II SFM insect medium (Expression System) were infected with virus stock at 1:200 virus/cell ratios, and grown for 48 hours at 27° C. post-transfection. The infected cell culture was harvested by centrifugation at 6000 rpm for 15 min 4° C. in a SORVALL LYNX6000 centrifuge. The cell pellets were stored at −80° C.
The human POL Theta (1-894)-His produced as described above, were purified from Sf9 baculovirus-infected insect cell paste. The cells were lysed using sonication method, and the lysates were clarified by centrifugation.
Enzymatic reactions of Pol Theta (1-894) were performed using ADP-Glo assay with ssDNA substrate. Pol Theta (1-894) was expressed in baculovirus expression system. The inhibition activities testing for the compound disclosed herein were carried out at room temperature in assay buffer containing 40 mM Tris pH 7.5, 20 mM MgCl2, 1 mM DTT, 0.01% BSA and 0.05% Tween-20. Compounds in DMSO were dispensed into wells of a black 384 well plate (Corning 4514) using D300e digital dispenser (Tecan). The ranges of compounds final concentration were 2.62 nM˜10000 nM. 3 μL 2× enzyme solution containing 12.5 nM enzyme was added to wells. […] After 1 hour reaction, 5 μL ADP-Glo reagent (Promga V9102) was added and incubated for 40 minutes. 10 μL Kinase Detection reagent was added and incubated for 40 minutes. Luminescence was measured on a microplate reader (PHERAstar FSX, BMG labtech). The IC50 values were calculated based on inhibition of enzyme activity in the presence of increasing concentrations of compounds.
For orientation: ADP-Glo first removes unused ATP, then detects ADP through luciferase.
Regarding `COc1ccccc1-c1cnncc1C(=O)Nc1nc2ccc(-c3ccc(Cl)cc3)nc2s1` [Example 9, N-(5-(4-chlorophenyl)thiazolo[5,4-b]pyridin-2-yl)-5-(2-methoxyphenyl)pyridazine-4-carboxamide], the IC50 is 20 nM. In other words, the double-digit nanomolar range.
The result for `COc1ccccc1-c1cnncc1C(=O)Nc1nc2ccc(C(=O)N3CCOCC3)nc2s1` [Example 124, 5-(2-methoxyphenyl)-N-(5-(morpholine-4-carbonyl)thiazolo[5,4-b]pyridin-2-yl)pyridazine-4-carboxamide] reads 44 nM.
In turn, `COc1ccc(C#N)cc1-c1cc(C)ncc1C(=O)Nc1nc2ccc(C3CCOCC3)nc2s1` [Example 67, 4-(5-cyano-2-methoxyphenyl)-6-methyl-N-(5-(tetrahydro-2H-pyran-4-yl)thiazolo[5,4-b]pyridin-2-yl)nicotinamide] displayed an IC50 of 64 nM. The IC50 values of the last two compounds are within 1.5-fold of each other.
The same measure for `Cc1cc(-c2ccc(=O)n(C)c2)c(C(=O)Nc2nc3ccc(-c4ccc(C#N)cc4)nc3s2)cn1` [Example 54, N-(5-(4-cyanophenyl)thiazolo[5,4-b]pyridin-2-yl)-1,6′-dimethyl-6-oxo-1,6-dihydro-[3,4′-bipyridine]-3′-carboxamide]: 64 nM; for `COc1ccccc1-c1cnncc1C(=O)Nc1nc2ccc(-c3ccc(Cl)cn3)nc2s1` [Example 55, N-(5-(5-chloropyridin-2-yl)thiazolo[5,4-b]pyridin-2-yl)-5-(2-methoxyphenyl)pyridazine-4-carboxamide]: 5 nM; for `COc1ccccc1-c1cnncc1C(=O)Nc1nc2ccc(-c3ccc(C(=O)N4CCCC4)cc3)nc2s1` [Example 88, 5-(2-methoxyphenyl)-N-(5-(4-(pyrrolidine-1-carbonyl)phenyl)thiazolo[5,4-b]pyridin-2-yl)pyridazine-4-carboxamide]: 50 nM.
The result for `COc1ccc(C#N)cc1-c1cc(C)ncc1C(=O)Nc1nc2ccc(-c3ccc([C@@H](C)C#N)cc3)nc2s1` [Example 177A, (R)-4-(5-cyano-2-methoxyphenyl)-N-(5-(4-(1-cyanoethyl)phenyl)thiazolo[5,4-b]pyridin-2-yl)-6-methylnicotinamide] reads 25 nM; that for `COc1ccc(C#N)cc1-c1cc(C)ncc1C(=O)Nc1nc2ccc(N3CCOCC3)nc2s1` [Example 60, 4-(5-cyano-2-methoxyphenyl)-6-methyl-N-(5-morpholinothiazolo[5,4-b]pyridin-2-yl)nicotinamide], 361 nM; that for `COc1ccccc1-c1cnncc1C(=O)Nc1nc2ccc(-c3ccc(Cl)c(C)c3C)nc2s1` [Example 139, N-(5-(4-chloro-2,3-dimethylphenyl)thiazolo[5,4-b]pyridin-2-yl)-5-(2-methoxyphenyl)pyridazine-4-carboxamide], 21 nM.
In turn, `COc1ccc(S(C)(=O)=O)cc1-c1cc(C)ncc1C(=O)Nc1nc2ccc(-c3ccc(C#N)cc3)nc2s1` [Example 52, N-(5-(4-cyanophenyl)thiazolo[5,4-b]pyridin-2-yl)-4-(2-methoxy-5-(methylsulfonyl)phenyl)-6-methylnicotinamide] gave an IC50 of 8.4 nM. Against the preceding compound, the IC50 is about 2.5-fold lower.
The result for `COc1ccc(C#N)cc1-c1nc(C#N)ccc1C(=O)Nc1nc2ccc(-c3ccc(Cl)cc3)nc2s1` [Example 7, N-(5-(4-chlorophenyl)thiazolo[5,4-b]pyridin-2-yl)-6-cyano-2-(5-cyano-2-methoxyphenyl)nicotinamide] reads 92 nM; that for `COc1ccccc1-c1cnncc1C(=O)Nc1nc2ccc(Oc3ccc(Cl)cc3F)nc2s1` [Example 155, N-(5-(4-chloro-2-fluorophenoxy)thiazolo[5,4-b]pyridin-2-yl)-5-(2-methoxyphenyl)pyridazine-4-carboxamide], 73 nM; that for `COc1ccccc1-c1cnncc1C(=O)Nc1nc2ccc(-c3cc(C)c(NC(C)=O)c(C)c3)nc2s1` [Example 140, N-(5-(4-acetamido-3,5-dimethylphenyl)thiazolo[5,4-b]pyridin-2-yl)-5-(2-methoxyphenyl)pyridazine-4-carboxamide], 7.7 nM.
On to `COc1ccc(C#N)cc1-c1cc(C)ncc1C(=O)Nc1nc2ccc(-c3ccc(CC#N)c(C)c3)nc2s1` [Example 171, 4-(5-cyano-2-methoxyphenyl)-N-(5-(4-(cyanomethyl)-3-methylphenyl)thiazolo[5,4-b]pyridin-2-yl)-6-methylnicotinamide], for which the 50% inhibitory concentration (IC50) amounted to 13 nM.
The result for `COc1ccccc1-c1cnncc1C(=O)Nc1nc2ccc(-c3ccc(C(=O)N(C)C)cc3)nc2s1` [Example 92, N-(5-(4-(dimethylcarbamoyl)phenyl)thiazolo[5,4-b]pyridin-2-yl)-5-(2-methoxyphenyl)pyridazine-4-carboxamide] reads 16 nM; that for `COc1ccc(C#N)cc1-c1cc(C)ncc1C(=O)Nc1nc2ccc(-c3ccc(C(=O)N4CCC4)cc3)nc2s1` [Example 145, N-(5-(4-(azetidine-1-carbonyl)phenyl)thiazolo[5,4-b]pyridin-2-yl)-4-(5-cyano-2-methoxyphenyl)-6-methylnicotinamide], 22 nM.
The result for `COc1ccccc1-c1cc(C)ncc1C(=O)Nc1nc2ccc(-c3ccc(C#N)cc3)nc2s1` [Example 72, N-(5-(4-cyanophenyl)thiazolo[5,4-b]pyridin-2-yl)-4-(2-methoxyphenyl)-6-methylnicotinamide] reads 59 nM.
The result for `COc1ccc(C2CC2)cc1-c1cc(C)ncc1C(=O)Nc1nc2ccc(-c3ccc(C#N)cc3)nc2s1` [Example 57, N-(5-(4-cyanophenyl)thiazolo[5,4-b]pyridin-2-yl)-4-(5-cyclopropyl-2-methoxyphenyl)-6-methylnicotinamide] reads 58 nM; that for `COc1cccc(F)c1-c1cnccc1C(=O)Nc1nc2ccc(-c3ccc(NC(C)=O)cc3)nc2s1` [Example 31, N-(5-(4-acetamidophenyl)thiazolo[5,4-b]pyridin-2-yl)-3-(2-fluoro-6-methoxyphenyl)isonicotinamide], 70 nM; that for `CCNC(=O)c1ccc(-c2ccc3nc(NC(=O)c4cnncc4-c4ccccc4OC)sc3n2)c(C)c1` [Example 132, N-(5-(4-(ethylcarbamoyl)-2-methylphenyl)thiazolo[5,4-b]pyridin-2-yl)-5-(2-methoxyphenyl)pyridazine-4-carboxamide], 12 nM.
As to `N#Cc1ccc(C(=O)Nc2nc3ccc(-c4ccc(Cl)cc4)nc3s2)c(N2CCOCC2)n1` [Example 1, N-(5-(4-chlorophenyl)thiazolo[5,4-b]pyridin-2-yl)-6-cyano-2-morpholinonicotinamide], the IC50 came out at 347 nM.
The compound `COc1cc(Cl)ccc1Oc1ccc2nc(NC(=O)c3cnncc3-c3ccccc3OC)sc2n1` [Example 154, N-(5-(4-chloro-2-methoxyphenoxy)thiazolo[5,4-b]pyridin-2-yl)-5-(2-methoxyphenyl)pyridazine-4-carboxamide] had an IC50 of 60 nM. This IC50 is about 5.8-fold lower than that of the compound before.
In the case of `COc1ccc(C#N)cc1-c1cc(C)ncc1C(=O)Nc1nc2ccc(-c3ccc(CNC(C)=O)cc3)nc2s1` [Example 115, N-(5-(4-(acetamidomethyl)phenyl)thiazolo[5,4-b]pyridin-2-yl)-4-(5-cyano-2-methoxyphenyl)-6-methylnicotinamide], 7.1 nM corresponded to half-maximal inhibition (IC50).
The result for `COc1ccc(C#N)cc1-c1cc(C)ncc1C(=O)Nc1nc2ccc(-c3ccc(CO)cc3)nc2s1` [Example 44, 4-(5-cyano-2-methoxyphenyl)-N-(5-(4-(hydroxymethyl)phenyl)thiazolo[5,4-b]pyridin-2-yl)-6-methylnicotinamide] reads 14 nM; that for `COc1ccc(C#N)cc1-c1cc(C)ncc1C(=O)Nc1nc2ccc(-c3ccc(N4CCCC4=O)c(C)c3)nc2s1` [Example 78, 4-(5-cyano-2-methoxyphenyl)-6-methyl-N-(5-(3-methyl-4-(2-oxopyrrolidin-1-yl)phenyl)thiazolo[5,4-b]pyridin-2-yl)nicotinamide], 7.5 nM.
The same measure for `COc1ccc(C#N)cc1-c1cc(C#N)ncc1C(=O)Nc1nc2ccc(-c3ccc(NC(C)=O)cc3)nc2s1` [Example 36, N-(5-(4-acetamidophenyl)thiazolo[5,4-b]pyridin-2-yl)-6-cyano-4-(5-cyano-2-methoxyphenyl)nicotinamide]: 73 nM.
The result for `COc1ccc(C#N)cc1-c1cc(C)ncc1C(=O)Nc1nc2ccc(-c3ccc(N(C)S(C)(=O)=O)c(C)c3)nc2s1` [Example 89, 4-(5-cyano-2-methoxyphenyl)-6-methyl-N-(5-(3-methyl-4-(N-methylmethylsulfonamido)phenyl)thiazolo[5,4-b]pyridin-2-yl)nicotinamide] reads 23 nM.
Compound `COc1ccc(C#N)cc1-c1cc(C)ncc1C(=O)Nc1nc2ccc(-c3ccc(N4CCCC4=O)cc3)nc2s1` [Example 45, 4-(5-cyano-2-methoxyphenyl)-6-methyl-N-(5-(4-(2-oxopyrrolidin-1-yl)phenyl)thiazolo[5,4-b]pyridin-2-yl)nicotinamide] came in with an IC50 of 32 nM.
